From patent US20130230459A1, “RADIOLABELLED mGluR2 PET LIGANDS” (Janssen Pharmaceuticals, Inc., priority 2010, published 2013)
Several values for one entry are separate records, joined by “and”; a condition that tells them apart may be missing. Equal entries are not always repeated.

Columns and labels:
[1] = Plasma radiometabolite analysis (30 min p.i.); assay type: in vivo, Wistar rats; conditions: n = 2
Experimental: The metabolic stability of [^11C]B-4, [^11C]B-2, [^11C]B-7, and [^11C]B-10 was studied in healthy male Wistar rats by determination of the relative amounts of parent tracer and radiometabolites in plasma at 30 min p.i. of the tracer. After intravenous (i.v.) administration of about 74 MBq of the radioligand via tail vein under anesthesia (2.5% Isoflurane in O2 at 1 L/min flow rate), rats were sacrificed by decapitation at 30 min p.i. (n=2). Blood was collected in heparin containing tubes (4.5 mL LH PST tubes; BD vacutainer, BD, Franklin Lakes, N.J., USA) and stored on ice to stop the metabolism. Next, the blood was centrifuged for 5 min at 3000 rpm to separate the plasma. About 0.5 mL of plasma was spiked with about 10 μg of the authentic non-radioactive compound (1 mg/mL solution) and injected on to HPLC, which was connected to a Chromolith® performance column (C18, 3 mm×100 mm, Merck KGaA, Darmstadt, Germany). The mobile phase consisted of 0.05 M NaOAc buffer (pH 5.5) (solution A) and CH3CN (solvent B). The following method was used for the analysis: isocratic elution with 100% A for 4 min at a flow rate of 0.5 mL/min, linear gradient to 90% B by 9 min at a flow rate of 1 mL/min, and isocratic elution with mixture of 10% A and 90% B until 12 min. After passing through the UV detector (254 nm), the HPLC eluate was collected as 1 mL fractions (fraction collection each minute) using an automatic fraction collector and the radioactivity of these fractions was measured using an automated gamma counter.

[2] = Biodistribution studies of 11C tracers; assay type: in vivo, Wistar rats; conditions: for SUV Blood / SUV Cerebellum / SUV Cerebrum total / SUV Cortex / SUV Hippocampus / SUV Striatum: normalized for body weight
Experimental: Biodistribution studies were carried out in healthy male Wistar rats (body weight 200-450 g) at 2 min, 30 min and 60 min post injection (p.i.) (n=3/time point). Rats were injected with about 11 MBq (2 min, 30 min analysis) or 22 MBq (60 min analysis) of the tracer via tail vein under anesthesia (2.5% isoflurane in O2 at 1 L/min flow rate) and sacrificed by decapitation at above specified time points. Blood and major organs were collected in tared tubes and weighed. The radioactivity in blood, organs and other body parts was measured using an automated gamma counter. The distribution of radioactivity in different parts of the body at different time points p.i. of the tracer was calculated and expressed as percentage of injected dose (% ID), and as percentage of injected dose per gram tissue (% ID/g) for the selected organs. % ID is calculated as cpm in organ/total cpm recovered. For calculation of total radioactivity in blood, blood mass was assumed to be 7% of the body mass.

Intact tracer in rat plasma [1]: 70% and 69.7 ± 5.1%
Polar metabolites in rat plasma [1]: 30.3 ± 5.1%
% ID Blood ([2]; 2 min p.i.): 4.3 % ID and 4.3 ± 0.6 % ID
% ID Carcass ([2]; 2 min p.i.): 38.4 ± 2.6 % ID
% ID Cerebellum ([2]; 2 min p.i.): 0.17 % ID and 0.174 ± 0.039 % ID
% ID Cerebrum total ([2]; 2 min p.i.): 0.69 % ID and 0.691 ± 0.146 % ID
% ID Cortex ([2]; 2 min p.i.): 0.097 ± 0.019 % ID
% ID Heart ([2]; 2 min p.i.): 4.6 ± 0.6 % ID
% ID Hippocampus ([2]; 2 min p.i.): 0.028 ± 0.008 % ID
% ID Intestines ([2]; 2 min p.i.): 8.5 ± 0.3 % ID
% ID Kidneys ([2]; 2 min p.i.): 6.6 ± 0.7 % ID
% ID Liver ([2]; 2 min p.i.): 33.5 ± 1.4 % ID
% ID Lungs ([2]; 2 min p.i.): 1.5 ± 0.1 % ID
% ID Rest of cerebrum ([2]; 2 min p.i.): 0.535 ± 0.121 % ID
% ID Spleen + Pancreas ([2]; 2 min p.i.): 1.4 ± 0.1 % ID
% ID Stomach ([2]; 2 min p.i.): 1.4 ± 0.2 % ID
% ID Striatum ([2]; 2 min p.i.): 0.032 ± 0.008 % ID
% ID Urine ([2]; 2 min p.i.): 0.1 ± 0.0 % ID
Total brain uptake ([2]; 2 min p.i.): 0.88 % ID and 0.88 ± 0.2 % ID
% ID Blood ([2]; 30 min p.i.): 2.7 ± 0.9 % ID
% ID Carcass ([2]; 30 min p.i.): 50.9 ± 3.4 % ID
% ID Cerebellum ([2]; 30 min p.i.): 0.291 ± 0.088 % ID
% ID Cerebrum total ([2]; 30 min p.i.): 0.914 ± 0.140 % ID
% ID Cortex ([2]; 30 min p.i.): 0.118 ± 0.041 % ID
% ID Heart ([2]; 30 min p.i.): 2.5 ± 0.8 % ID
% ID Hippocampus ([2]; 30 min p.i.): 0.045 ± 0.005 % ID
% ID Intestines ([2]; 30 min p.i.): 10.4 ± 1.2 % ID
% ID Kidneys ([2]; 30 min p.i.): 4.3 ± 1.0 % ID
% ID Liver ([2]; 30 min p.i.): 22.7 ± 3.0 % ID
% ID Lungs ([2]; 30 min p.i.): 1.1 ± 0.5 % ID
% ID Rest of cerebrum ([2]; 30 min p.i.): 0.704 ± 0.112 % ID
% ID Spleen + Pancreas ([2]; 30 min p.i.): 1.4 ± 0.2 % ID
% ID Stomach ([2]; 30 min p.i.): 3.7 ± 0.3 % ID
% ID Striatum ([2]; 30 min p.i.): 0.047 ± 0.008 % ID
% ID Urine ([2]; 30 min p.i.): 0.3 ± 0.1 % ID
Total brain uptake ([2]; 30 min p.i.): 1.23 ± 0.2 % ID
% ID Blood ([2]; 60 min p.i.): 2.0 % ID and 2.0 ± 0.0 % ID
% ID Carcass ([2]; 60 min p.i.): 55.8 ± 9.4 % ID
% ID Cerebellum ([2]; 60 min p.i.): 0.142 ± 0.029 % ID
% ID Cerebrum total ([2]; 60 min p.i.): 0.558 ± 0.042 % ID
% ID Cortex ([2]; 60 min p.i.): 0.080 ± 0.022 % ID
% ID Heart ([2]; 60 min p.i.): 1.2 ± 0.2 % ID
% ID Hippocampus ([2]; 60 min p.i.): 0.024 ± 0.006 % ID
% ID Intestines ([2]; 60 min p.i.): 15.6 ± 2.7 % ID
% ID Kidneys ([2]; 60 min p.i.): 2.1 ± 0.2 % ID
% ID Liver ([2]; 60 min p.i.): 20.1 ± 7.0 % ID
% ID Lungs ([2]; 60 min p.i.): 0.6 ± 0.1 % ID
% ID Rest of cerebrum ([2]; 60 min p.i.): 0.421 ± 0.010 % ID
% ID Spleen + Pancreas ([2]; 60 min p.i.): 0.7 ± 0.0 % ID
% ID Stomach ([2]; 60 min p.i.): 1.7 ± 0.4 % ID
% ID Striatum ([2]; 60 min p.i.): 0.033 ± 0.008 % ID
% ID Urine ([2]; 60 min p.i.): 0.3 ± 0.1 % ID
% ID present in liver and intestines ([2]; 60 min p.i.): 35.7 % ID
% ID present in the urinary system ([2]; 60 min p.i.): 2.4 % ID
Total brain uptake ([2]; 60 min p.i.): 0.71 ± 0.0 % ID
% ID present in the carcass ([2]; at all time points examined): ~50 % ID
SMILES: [11CH3]Oc1c(F)ccc(F)c1C1CCN(c2ccn3c(CC4CC4)nnc3c2Cl)CC1 [[^11C]B-2, 8-chloro-3-(cyclopropylmethyl)-7-[4-(3,6-difluoro-2-[^11C]methoxyphenyl)-1-piperidinyl]-1,2,4-triazolo[4,3-a]pyridine]
SUV Blood ([2]; 2 min p.i.): 0.60 ± 0.01
SUV Cerebellum ([2]; 2 min p.i.): 1.59 ± 0.03
SUV Cerebrum total ([2]; 2 min p.i.): 1.32 ± 0.03
SUV Cortex ([2]; 2 min p.i.): 1.46 ± 0.03
SUV Hippocampus ([2]; 2 min p.i.): 0.90 ± 0.01
SUV Striatum ([2]; 2 min p.i.): 1.22 and 1.22 ± 0.02
SUV Blood ([2]; 30 min p.i.): 0.40 ± 0.01
SUV Cerebellum ([2]; 30 min p.i.): 2.62 and 2.62 ± 0.04
SUV Cerebrum total ([2]; 30 min p.i.): 1.96 ± 0.03
SUV Cortex ([2]; 30 min p.i.): 1.77 ± 0.04
SUV Hippocampus ([2]; 30 min p.i.): 1.49 ± 0.03
SUV Striatum ([2]; 30 min p.i.): 2.14 and 2.14 ± 0.04
SUV Blood ([2]; 60 min p.i.): 0.30 ± 0.01
SUV Cerebellum ([2]; 60 min p.i.): 1.75 ± 0.04
SUV Cerebrum total ([2]; 60 min p.i.): 1.11 ± 0.06
SUV Cortex ([2]; 60 min p.i.): 1.28 ± 0.02
SUV Hippocampus ([2]; 60 min p.i.): 0.73 ± 0.06
SUV Striatum ([2]; 60 min p.i.): 1.72 ± 0.02
